The record followed here is ChEMBL document CHEMBL1135696, “Isotopic effect study of propofol deuteration on the metabolism, activity, and toxicity of the anesthetic” (J Med Chem, 2002).

What is called LD50 is the dose at which mortality reaches 50%. Low values mean greater toxicity, high ones lower toxicity. Broadly, the Km is the concentration of substrate that gives half-maximal velocity.

The nature of data set [1]: Lethal Dose in mice (in vivo). Particulars: mouse.
Data set [2] is described as follows: Kinetic parameter, Km on human hepatic microsomes. Particulars: liver microsomes. Background: Liver microsomes are a subcellular fraction often used to study metabolism.
The nature of another data set: in vivo. Particulars: mouse, 24 mg/kg.

Description for in vivo: Therapeutic index (24 mg/kg) in mice (in vivo)

Take `CC(C)c1cccc(C(C)C)c1O` [PROPOFOL]: the median lethal dose (LD50) in data set [1] turned out to be 32 mg/kg. In addition, the Michaelis constant (Km) in data set [2] turned out to be 12.3 µM. Further, the selectivity ratio in “in vivo” was 2.1.

In data set [1], `[2H]c1c([2H])c(C(C)C)c(O)c(C(C)C)c1[2H]` [TRIDEUTERATED PROPOFOL] registered an LD50 of 35 mg/kg. In data set [2], the Km came out at 16.4 µM. Besides, the selectivity ratio in the data set “in vivo” came out at 2.7.

On to `[2H]c1cc(C(C)C)c(O)c(C(C)C)c1` [MONODEUTERATED PROPOFOL], for which the LD50 in data set [1] was 39 mg/kg. Moreover, in data set [2], the Km amounted to 16.7 µM. Further, the selectivity ratio in “in vivo” came out at 3.
